Tested on: RL CD19+ tumor cells
Test: Cytolytic function: co-culture of anti-CD19 CAR T cells with RL CD19+ tumor cells
Type: cell-based
Conditions: E:T 1:1
Procedure: To do so, CAR T cells were plated on ploy-D-lysine plates. CD19+ tumor cells transduced with IncuCyte® NucLight Red (Essen BioScience Inc.) were then added to the CAR T cells in addition to Compound C or vehicle control. Tumor cell number was measured over multiple days.
Treatment with CAR T cells in combination with either immunomodulatory compound led to lower tumor cell numbers than did CAR T cells alone or the compounds alone.

Which results are given for `O=C1CC[C@H](N2Cc3c(OCc4ccc(CN5CCOCC5)cc4)cccc3C2=O)C(=O)N1` [Compound 2, (S)-3-[4-(4-morpholin-4-ylmethyl-benzyloxy)-1-oxo-1,3-dihydro-isoindol-2-yl]-piperidine-2,6-dione, reference compound]?
RL tumor cell number vs CAR T cells alone or compound alone (compound at 0.01 μM with anti-CD19 CAR T cells): lower; RL tumor cell number vs CAR T cells alone or compound alone (compound at 0.1 μM with anti-CD19 CAR T cells): lower
